Test results from US20140031324A1, “COMPOUND COMPOSITION FOR INHALATION USED FOR TREATING ASTHMA” (Intech Biopharm Ltd., priority 2010, published 2014).

Assays:
[1] = tested on: OVA-sensitized mice; assay: Albumin (OVA)-induced asthma model in mice; methacholine-induced tracheal contraction (airway hyperresponsiveness, FlexiVent); format: in vivo, Balb/c mice; conditions: single super high dose, alone or in combination, intratracheal, FIGS. 2 to 4
[2] = long acting beta-2 agonists (LABA); cited from earlier work

Structure (SMILES) | acute drug tolerance (ability of trachea relaxing) [1] | duration of action [2]
OCc1cc(C(O)CNCCCCCCOCCCCc2ccccc2)ccc1O (stereo not drawn) [Salmeterol, Salmeterol Xinafoate] | acute drug tolerance phenomenon of reducing the ability of trachea relaxing | up to twelve
CCC(NC(C)C)C(O)c1ccc(O)c2[nH]c(=O)ccc12 (stereo not drawn) [Procaterol] | acute drug tolerance phenomenon of reducing the ability of trachea relaxing | –
